# Results reported in patent US8465780B2, “Borate micro emulsion and method for making the same” (Nisus Corporation, priority 2006, dated 2013).
# Experiments:
# algae = assay: Algae growth suppression in lake water (Example 4); format: cell-based; conditions: 0.1 weight percent in lake water, two months outside in sun; higher = more algal growth
# Protocol: From this lake sample, three 1 liter glass beakers were each filled with 900 mL of lake water. […] Sodium tetraborate was added to a second beaker to provide a concentration of 0.1 weight percent sodium tetraborate. The third beaker was left as an untreated control. The three samples, which were collected in August, were then left outside, fully exposed to the sun, for a period of two months.
# After the two month period, the samples were then visually inspected for algal growth. The samples were also analyzed using a Spectronic Genesys 20 spectrophotometer from Thermo Scientific. This analysis was conducted by testing for absorbance at 330 nm.
# [1] = Free chlorine and pH in 2000 gallon swimming pools (Example 6)
# Protocol: In this example, different borates were added to swimming pools, together with a chlorine-based sanitizer, in order to measure pH and free chlorine (CY) levels in the swimming pools over a period it time.
# Three substantially identical, 2000 gallon above-ground swimming pools were used for the tests. Each pool was initially filled with approximately 2000 gallons of tap water, and then 500 milliliters of lake water was added to each pool to inoculate the pool water with algae. The testing was conducted during the month of September at a location near Knoxville, Tenn.
# In the first pool, approximately 4 pounds of sodium tetraborate was added to the pool water. […] The third pool was used as a control with no form of borate being added to the pool water. The borates in the first and second pools were then allowed to mix overnight.
# The following morning, initial pH and chlorine measures were taken for each pool at approximately 9:45 am. Approximately 0.3 pounds of calcium hypochlorate was then added to the water in each of the three swimming pools at approximately 10 am. The pH and chlorine levels in each of the pools were then measured periodically over the course of the day.
# [2] = Borate dissolution test in 300 mm water column; format: physicochemical; conditions: 0.2 g (0.08 weight %) in 250 ml deionized water, 300 mm column
# Protocol: In this example, different forms of borates were added to columns of water and a swimming pool to determine their comparative dispersion and rate of dissolution characteristics.
# Two hundred and fifty (250) ml of deionized water was placed in each of 4 measuring cylinders to give a 300 mm vertical column of water in each cylinder to mimic in small scale the depth of water in a swimming pool. […] The results of the addition were then observed visually and recorded.
compound,measurement,setting,value
"O=BOB(O)OB(O)OB=O [Sodium tetraborate, sodium tetraborate]",Absorbance (Abs.) at 330 nm,algae,0.01 Abs.
sodium hexaborate,pH for swimming pool water,[1]; 1:25 pm,7.2-7.8
same,pH for swimming pool water,[1]; 2:10 pm,7.2-7.8
same,pH for swimming pool water,[1]; 2:50 pm,7.2-7.8
same,pH for swimming pool water,[1]; 3:30 pm,7.2-7.8
same,pH for swimming pool water,[1]; 4:10 pm,7.2-7.8
same,pH for swimming pool water,[1]; 5:00 pm,7.2-7.8
same,pH for swimming pool water,"[1]; 9:45 am, before calcium hypochlorate addition, 4 pounds borate per 2000 gallons",7.2-7.8
same,pH for swimming pool water,"[1]; 10:00 am, time of calcium hypochlorate addition",7.2-7.8
same,pH for swimming pool water,[1]; 10:55 am,7.2-7.8
same,pH for swimming pool water,[1]; 11:15 am,7.8-8.4
same,pH for swimming pool water,[1]; 12:00 pm,7.8-8.4
same,pH for swimming pool water,[1]; 12:40 pm,7.8-8.4
"OB(O)O [boric acid, reference compound]","dispersion and dissolution, observed visually",[2],mostly float on top of the water and did not completely dissolve
O.O.O.O.O=BOB1OB(OB=O)OB2OB([O-])OB([O-])OB(O1)O2.[Na+].[Na+] [disodium octaborate tetrahydrate],"dispersion and dissolution, observed visually",[2],immediately disperse and fully dissolve in a matter of seconds
